The target of one experiment is T1, human orexin-2 receptor (Homo sapiens, UniProt O43614).
T1 construct: expressed in transfected cells; host or cells: CHO (Chinese hamster ovary) cells, grown under G418 selection
T1 sequence (O43614 1-444): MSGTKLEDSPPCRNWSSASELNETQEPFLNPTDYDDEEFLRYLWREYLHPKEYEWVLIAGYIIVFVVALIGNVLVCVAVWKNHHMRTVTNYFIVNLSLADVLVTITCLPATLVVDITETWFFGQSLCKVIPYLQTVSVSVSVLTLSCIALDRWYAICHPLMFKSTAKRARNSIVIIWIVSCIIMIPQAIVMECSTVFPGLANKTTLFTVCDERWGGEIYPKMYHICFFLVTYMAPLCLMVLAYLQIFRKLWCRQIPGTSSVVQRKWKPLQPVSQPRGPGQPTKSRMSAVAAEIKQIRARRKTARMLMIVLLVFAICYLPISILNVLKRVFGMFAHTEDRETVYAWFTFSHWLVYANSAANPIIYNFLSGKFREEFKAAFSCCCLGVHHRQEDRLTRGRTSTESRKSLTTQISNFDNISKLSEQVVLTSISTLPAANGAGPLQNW
Kind of experiment: Intracellular calcium measurements (FLIPR), orexin receptor antagonistic activity, OX2. The settings on record: CHO cells expressing human orexin-2 receptor, 10 nM orexin-A as agonist. The experiment is classed as cell-based. The procedure:
(§1) The orexin receptor antagonistic activity of the compounds of formula (I) is determined in accordance with the following experimental method.
(§2) Intracellular Calcium Measurements:
(§3) Chinese hamster ovary (CHO) cells expressing the human orexin-1 receptor and the human orexin-2 receptor, respectively, are grown in culture medium (Ham F-12 with L-Glutamine) containing 300 μg/ml G418, 100 U/ml penicillin, 100 μg/ml streptomycin and 10% inactivated fetal calf serum (FCS). The cells are seeded at 80,000 cells/well into 96-well black clear bottom sterile plates (Costar) which have been precoated with 1% gelatine in Hanks' Balanced Salt Solution (HBSS). All reagents are from Gibco BRL. The seeded plates are incubated overnight at 37° C. in 5% CO2.
(§4) Human orexin-A as an agonist is prepared as 1 mM stock solution in MeOH: water (1:1), diluted in HBSS containing 0.1% bovine serum albumin (BSA) and 2 mM HEPES for use in the assay at a final concentration of 10 nM.
(§5) Antagonists are prepared as 10 mM stock solution in DMSO, then diluted in 96-well plates, first in DMSO, then in HBSS containing 0.1% bovine serum albumin (BSA) and 2 mM HEPES.
(§6) On the day of the assay, 100 μl of loading medium (HBSS containing 1% FCS, 2 mM HEPES, 5 mM probenecid (Sigma) and 3 μM of the fluorescent calcium indicator fluo-3 AM (1 mM stock solution in DMSO with 10% pluronic acid) (Molecular Probes) is added to each well.
(§7) The 96-well plates are incubated for 60 min at 37° C. in 5% CO2. The loading solution is then aspirated and cells are washed 3 times with 200 μl HBSS containing 2.5 mM probenecid, 0.1% BSA, 2 mM HEPES. 100 μl of that same buffer is left in each well.
(§8) Within the Fluorescent Imaging Plate Reader (FLIPR, Molecular Devices), antagonists are added to the plate in a volume of 50 μl, incubated for 20 min and finally 100 μl of agonist is added. Fluorescence is measured for each well at 1 second intervals, and the height of each fluorescence peak is compared to the height of the fluorescence peak induced by 10 nM orexin-A with buffer in place of antagonist.
(Calcium assays in cells follow changes in intracellular calcium, usually with a dye or a luminescent sensor.)

A further experiment addresses T2, human orexin-1 receptor (Homo sapiens, UniProt O43613).
T2 construct: expressed in transfected cells; host or cells: CHO (Chinese hamster ovary) cells, grown under G418 selection
T2 sequence (O43613 1-425): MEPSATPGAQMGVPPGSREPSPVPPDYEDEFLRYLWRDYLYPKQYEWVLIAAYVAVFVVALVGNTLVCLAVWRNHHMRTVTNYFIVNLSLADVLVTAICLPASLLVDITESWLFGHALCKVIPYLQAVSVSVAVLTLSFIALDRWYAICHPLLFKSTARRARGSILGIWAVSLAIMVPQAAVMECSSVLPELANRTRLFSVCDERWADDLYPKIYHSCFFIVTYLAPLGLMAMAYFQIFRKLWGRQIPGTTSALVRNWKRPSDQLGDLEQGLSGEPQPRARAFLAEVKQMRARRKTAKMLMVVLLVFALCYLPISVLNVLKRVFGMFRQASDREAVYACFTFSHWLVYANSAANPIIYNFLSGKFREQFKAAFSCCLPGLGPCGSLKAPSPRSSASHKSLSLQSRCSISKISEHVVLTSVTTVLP
Kind of experiment: Intracellular calcium measurements (FLIPR), orexin receptor antagonistic activity, OX1. The settings on record: CHO cells expressing human orexin-1 receptor, 10 nM orexin-A as agonist. The experiment is classed as cell-based. As to the method: as §1, §2, §3, §4, §5, §6, §7, §8

The IC50 is the concentration that inhibits the measured activity by half. On to `Cc1nc(C(=O)N2C[C@H]3C[C@H]3[C@H]2CNC(=O)c2cccc3c2OCCO3)c(-c2cccc(C#N)c2)s1` (relative stereo) [Example 336, 2,3-Dihydro-benzo[1,4]dioxine-5-carboxylic acid {(1R*,2S*,5S*)-3-[5-(3-cyano-phenyl)-2-methyl-thiazole-4-carbonyl]-3-aza-bicyclo[3.1.0]hex-2-ylmethyl}-amide], for which the IC50 came out at 48 nM at human orexin-2 receptor and 141 nM on human orexin-1 receptor.
For the compound `Cc1cccc(-c2sc(C#CCO)nc2C(=O)N2C[C@H]3C[C@H]3[C@H]2CNC(=O)c2c(C)nc3sccn23)c1` (relative stereo) [Example 387, 6-Methyl-imidazo[2,1-b]thiazole-5-carboxylic acid {(1R*,2S*,5S*)-3-[2-(3-hydroxy-prop-1-ynyl)-5-m-tolyl-thiazole-4-carbonyl]-3-aza-bicyclo[3.1.0]hex-2-ylmethyl}-amide], the concentration for half-maximal inhibition (IC50) at human orexin-2 receptor amounted to 85 nM; on human orexin-1 receptor, 23 nM.
On to `Cc1cccc(-c2sc(CCCO)nc2C(=O)N2C[C@H]3C[C@H]3[C@H]2CNC(=O)c2c(C)nc3sccn23)c1` (relative stereo) [Example 389, 6-Methyl-imidazo[2,1-b]thiazole-5-carboxylic acid {(1R*,2S*,5S*)-3-[2-(3-hydroxy-propyl)-5-m-tolyl-thiazole4-carbonyl]-3-aza-bicyclo[3.1.0]hex-2-ylmethyl}-amide], for which the IC50 at human orexin-2 receptor was determined as 17 nM; on human orexin-1 receptor, 19 nM.
The matching figures for `Cc1ccc(C(=O)N2C[C@H]3C[C@H]3[C@H]2CNC(=O)c2cccc3c2OCC3)c(-c2cccc(F)c2)c1` [Compound 325]: 40 nM and 346 nM.
For `Cc1ccc(C(=O)N2C[C@H]3C[C@H]3[C@H]2CNC(=O)c2cccc3c2OCCO3)c(-c2ccc3c(c2)OCCO3)c1` [Compound 350] the same measures were 194 nM and 110 nM.
Consider `Cc1csc(-c2c(C)cccc2C(=O)N2C[C@H]3C[C@H]3[C@H]2CNC(=O)c2cccc3c2OCCO3)c1` [Compound 376], for which the IC50 amounted to 158 nM on human orexin-2 receptor and 194 nM on human orexin-1 receptor.

(Values after US20100016401A1, “3-AZA-BICYCLO[3.1.0]HEXANE DERIVATIVES” (Actelion Phamaceuticals Ltd., priority 2006, published 2010).)
